According to US11975111B2, “Dactinomycin compositions and methods for the treatment of myelodysplastic syndrome and acute myeloid leukemia” (Tiziana Life Sciences PLC, priority 2016, dated 2024):
*1 amine or outer side, *2 acyl side, *3 side chain or, on linkers, in order; H or OH if unused. Where a SMILES comes first, the peptide text is derived from it. Bridges are numbered along the chain shown (N, C = ends). Roman numbers before positions name the chains, in order. [ ]: non-standard residue; d: D form. Actinocin(9to1) = Cc1c2oc3c(C)ccc(C(=O)[*:1])c3nc-2c(C(=O)[*:2])c(N)c1=O; NMeV = CN[CH](C(=O)O)C(C)C; Sar = CNCC(=O)O

What was measured:
[1] = test system: NPM1-mutated cell line OCI/AML3; assay: Act-D induced nucleolar disintegration and apoptosis (NPM1/DAPI photographs); type: cell-based; settings: OCI/AML3, FIG. 3
Excerpt: NPM1=Nucleophosmin and DAPI=4′,6-diamidino-2-phenylindole—a fluorescent stain that binds strongly to A-T rich regions in DNA.

p53 = assay: Western blots of p53 activation in patient tumor cells; type: cell-based, human; settings: NPM1-mutated AML tumor cells contacted in vitro or in vivo, 2 cycles of 5 consecutive days at 12.5 μg/kg
NPM1-mutated AML = assay: Treatment of AML patients with dactinomycin alone or with low-dose cytarabine; type: in vivo, human
Experimental: FIG. 5 is a chart showing sequencing by the TruSight Myeloid Panel.—mutated genes (*).
FIG. 7 is a photograph of a computerized tomography (CT) scan showing pneumonitis in a subject administered dactinomycin at 15 μg/kg for 5 days.
FIGS. 9A and B are a pair of photographs depicting a bone marrow (BM) examination before and after therapy with dactinomycin alone.
Complete blood count (CBC) d=46, white blood cell 4130/mm^3, neutrophil percent (N=66%), hemoglobin (Hb)=7.7 g/dL, platelet (PLT) count 192.000/mm^3. Erythropoietin (EPO) dosage=17.8 mUl/ml (inappropriate response). Patient started on Darbopoetina.
Dactinomycin compositions of the disclosure may be administered with FLT3 inhibitors. […] There are two types of FLT3 mutations: internal tandem duplications (ITD) near the juxtamembrane domain of the receptor and point mutations in the activation loop of the tyrosine kinase domain (TKD mutations). TKD mutations comprise approximately 7% of patients, while ITD mutations are less prevalent in pediatrics and AML patients who were previously categorized as having MDS. (Fathi, A. T. et al. Eur. J. Haematol. 2017, 98: 330-336.)

[2] = Tolerability in rats, 0.5 mg/kg IV, body weight; type: in vivo; settings: over 7 days post treatment
Experimental: (§1) Free and formulated actinomycin D (0.5 mg/kg) was administered via IV
(§2) In another experiment, rats were also administered a single dose (0.5 mg/kg) of free and formulated Act D via IV (intravenous) injection.

[3] = Plasma dactinomycin (CMAX, 6 hr) in rat tolerability study, 0.5 mg/kg IV; type: in vivo; settings: rats, comparison in words
Experimental: as §1, §2

[4] = Pharmacokinetics in rats, single dose 0.3 mg/kg IV; type: in vivo
Experimental: Rats administered single dose (0.3 mg/kg) of unformulated and formulated Actinomycin D via IV injection. (FIG. 31)
Processed plasma samples at indicated times extracted in mixture of methanol and formic acid to determine total (free and encapsulated) API in systemic circulation.

[5] = Single dose intravenous tolerability in rats, 900 μg/kg; type: in vivo, Female Sprague Dawley rats; settings: for clinical observations, signs of toxicity: post-dose observation
Experimental: A side by side comparison of the tolerability of free actinomycin D (i.e., not in a nanoparticle) and four compositions comprising actinomycin D nanoparticles (NP-ActD) formulations in rats when dosed by intravenous administration.
Female Sprague Dawley rats (HSd:SD), 6-8 weeks and 150-175 g at dosing were used for these studies. This is a single dose study with observations for 14 days post-dose. On day 1 of the study, each animal received either 900 μg/kg of the free actinomycin D or a NP-ActD formulations (900 μg/kg of the active) in a fixed volume of 1 mL/kg according to the study design in the Table below.
The following parameters were monitored: clinical observations daily, mortality, body weights, and food consumption. A full necropsy will be conducted on Day 14 post-dose, at which time organ weights and macroscopic findings will be determined. The organs will be preserved for future histology and the lungs, liver, pancreas, spleen, brain and kidneys will be frozen in liquid nitrogen for measurement of actinomycin D/NP-ActD accumulation.
Blood was collected for pharmacokinetic evaluation following dosing on Day 1 at 0.083, 0.25, 0.5, 1, 2, 6, and 24 hours post dose. Serum samples will be collected for clinical chemistry and whole blood samples for hematology.

[6] = cited from earlier work

Structure (SMILES): Cc1c2oc3c(C)ccc(C(=O)NC4C(=O)NC(C(C)C)C(=O)N5CCCC5C(=O)N(C)CC(=O)N(C)C(C(C)C)C(=O)OC4C)c3nc-2c(C(=O)NC2C(=O)NC(C(C)C)C(=O)N3CCCC3C(=O)N(C)CC(=O)N(C)C(C(C)C)C(=O)OC2C)c(N)c1=O (stereo not drawn) [dactinomycin, 2-amino-N,N′-bis(hexadecahydro-2,5,9-trimethyl-6,13-bis(1-methylethyl)-1,4,7,11,14-pentaoxo-1H-pyrrolo(2,1-I)(1,4,7,10,13)oxatetra-azacyclohexadecin-10-yl)-4,6-dimethyl-3-oxo-3H-phenoxazine-1,9-dicarboxamide] (I: TVP[Sar][NMeV] / II: TVP[Sar][NMeV]; ester I:1-I:C, II:1-II:C; linker I:N-II:N via Actinocin(9to1); configuration not given here)
- nucleolar disintegration and apoptosis [1]: induced nucleolar disintegration and apoptosis
- p53 activation (Western blot) (p53): p53 activation
- mutated genes by TruSight Myeloid Panel sequencing after treatment (NPM1-mutated AML; Patient, FIG. 5): NMP1, IDH2 and STAG2 mutations not detected
- bone marrow (BM) examination after therapy (NPM1-mutated AML; before and after therapy): marked reduction of leukemic blast infiltration with partial normal hematopoietic recovery
- efficacy in clinical trials (NPM1-mutated AML; clinical trials, AML patients): about 60 % of the patients treated
- hematological recovery (NPM1-mutated AML; following one cycle of treatment, FIG. 8): hematological recovery
- CT scan finding (NPM1-mutated AML; subject administered 15 μg/kg for 5 days): pneumonitis
- body weight ([2]; listed as free API): significant decrease in body weight
- body weight ([2]; listed as free dactinomycin): significant decrease in body weight
- body weight ([2]; listed as unformulated API): adverse effect on body weight
- CMAX, total (free and encapsulated) dactinomycin in plasma [3]: lower
- Theoretical Cmax in Humans ([4]; extrapolated to humans): 7.5 ng/mL
- Cmax ([4]; rat, plasma, 0.3 mg/kg, rats, IV): 60 ng/mL
- mortality rate ([5]; 13 days post-dose): about 80%
- additional animals euthanized ([5]; Day 7 post dose, 6 rats per group): two
- more animals euthanized ([5]; Day 9, 6 rats per group): two
- animals moribund and euthanized ([5]; day 6 post-dose, 6 rats per group): 1 animal
- body weights ([5]; rats, 900 μg/kg IV single dose, FIG. 32): consistently decreased body weights
- clinical observations, signs of toxicity ([5]; rats, 900 μg/kg IV single dose, listed as free Act D): piloerection, decreased activity, bleeding at the nares, and hunched posture
- clinical observations, signs of toxicity ([5]; rats, 900 μg/kg IV single dose, listed as free ActD): piloerection and discolored urine
- animals remained ([5]; thirteen days post-dose): 1/6
- AUC0-6 hrs in patients showing adverse events ([6]; patients showing adverse events, IV 1 mg/m^2 or 1.5 mg/m^2): 4 mg·min/L
- AUC0-6 hrs, patients with adverse events versus without ([6]; ratio): 1.46 times higher
- AUC0-6 hrs in subjects not showing adverse events ([6]; subjects not showing adverse events, IV 1 mg/m^2 or 1.5 mg/m^2): 2.67 mg·min/L
